From paper PMC6371759 (Chemical Science, 2018)

Target: human serum albumin (HSA) (Homo sapiens, UniProt P02768)
Assay: tryptophan fluorescence quenching
Format: binding

Chain of human serum albumin (HSA) (P02768 25-609): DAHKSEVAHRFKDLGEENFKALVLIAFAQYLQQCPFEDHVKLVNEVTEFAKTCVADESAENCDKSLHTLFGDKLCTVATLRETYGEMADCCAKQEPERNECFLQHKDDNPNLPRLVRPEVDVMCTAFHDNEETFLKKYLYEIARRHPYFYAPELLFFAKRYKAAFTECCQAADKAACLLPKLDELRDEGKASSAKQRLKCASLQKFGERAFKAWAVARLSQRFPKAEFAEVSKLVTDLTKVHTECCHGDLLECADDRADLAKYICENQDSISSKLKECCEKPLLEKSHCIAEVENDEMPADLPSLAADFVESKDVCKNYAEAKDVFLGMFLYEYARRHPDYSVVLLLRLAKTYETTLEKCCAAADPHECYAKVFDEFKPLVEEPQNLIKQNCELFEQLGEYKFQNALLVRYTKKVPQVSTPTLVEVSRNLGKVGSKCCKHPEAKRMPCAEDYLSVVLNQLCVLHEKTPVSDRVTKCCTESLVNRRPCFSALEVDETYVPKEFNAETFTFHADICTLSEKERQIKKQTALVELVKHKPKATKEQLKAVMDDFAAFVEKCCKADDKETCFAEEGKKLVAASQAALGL

For C[C@]12CC[C@H]3[C@@H](CCC4=CC(=O)CC[C@@]43C)[C@@H]1CC[C@@H]2O [testosterone], the Kd was 363 ± 83 µM.
